Measured values from patent publication US6962930B1, “Compounds, compositions and method suitable for amelioration of withdrawal syndromes and withdrawal-induced brain damage” (Lohocla Research Corporation, priority 1997, dated 2005).

Experiments:
[1] = tested on: primary cultures of rat cerebellar granule cells; test: Glutamate-induced excitotoxic cell death, fluorescein assay; format: cell-based
Method: Primary cultures of cerebellar granule cells were prepared from 6- to 8-day old Sprague-Dawley rats. A description of this procedure can be found in Iorio, K. R., et al., “CHRONIC EXPOSURE OF CEREBELLAR GRANULE CELLS TO ETHANOL RESULTS IN INCREASED N-METHYL-D-ASPARTATE RECEPTOR FUNCTION,” Mol. Pharmacol., 41 1142–1148 (1992), the relevant disclosures of which are incorporated herein by reference. The cultures were maintained in plates containing 24 wells of 1 ml each. Culture density was about 1.5×10^6 cells/ml. Cell viability was assayed after 7–8 days in culture by the production of fluorescein, formed from fluorescein diacetate by esterases present in living cells. […]
Cells were washed with Mg^2+-free Locke's buffer, and then exposed to glutamate alone or glutamate in the presence of 10, 30, or 100 μM DCUK-OMe at 25° C. for 30 minutes. […] For each study, the fluorescence value of a control culture (i.e., not exposed to glutamate) was set to 35,000 fluorescence units, and fluorescence values in all other cultures determined using the same spectrofluorometric settings were normalized to that value. […] The data are then expressed as the percent cell death relative to the control cultures.

Swiss-Webster mice = test: Ethanol-induced loss of righting reflex; format: in vivo; conditions: i.p. 30 minutes before ethanol; DCUK-OMe 100 mg/kg, DZP 1 mg/kg
Method: Swiss-Webster mice were pretreated (i.p.) with 100 mg/kg DCUK-OMe or 1 mg/kg diazepam (DZP) (in 5% Tween-80, 20% Intralipid) 30 minutes before receiving an i.p. administration of ethanol (either 2.3 or 3.2 g/kg, 20% v/v in saline.). The duration of the ethanol-induced loss of righting reflex (defined as the inability of the mouse to right itself when placed on its back in a trough) was measured. […] Since withdrawal signs are many times evident in individuals whose blood ethanol levels are dropping but are far from zero, the DCUK compounds would have an advantage over DZP in that the CNS depressant effects of ethanol would not be accentuated by DCUK compounds if the DCUK compounds are used in an alcohol-intoxicated individual.

[2] = molecular target: benzodiazepine binding site on the GABAA receptor; test: [3H]flunitrazepam binding, rat cortical membranes; conditions: 5–200 μM DCUKA tested
Method: SITES IN CEREBRUM OF F-344 RATS: EFFECTS OF EXERCISE,” Neurobiol. […] Non-specific binding was defined by 10 μM diazepam.

RSM (μl) sodium channels = molecular target: T1, RSM (μl) sodium channels (Rattus norvegicus, UniProt P15390); test: Sodium currents, whole cell patch clamp in CHO cells; format: cell-based; conditions: held at −100 mV, successive depolarizations
T1 construct: expressed in transfected cells
T1 sequence (P15390 whole entry): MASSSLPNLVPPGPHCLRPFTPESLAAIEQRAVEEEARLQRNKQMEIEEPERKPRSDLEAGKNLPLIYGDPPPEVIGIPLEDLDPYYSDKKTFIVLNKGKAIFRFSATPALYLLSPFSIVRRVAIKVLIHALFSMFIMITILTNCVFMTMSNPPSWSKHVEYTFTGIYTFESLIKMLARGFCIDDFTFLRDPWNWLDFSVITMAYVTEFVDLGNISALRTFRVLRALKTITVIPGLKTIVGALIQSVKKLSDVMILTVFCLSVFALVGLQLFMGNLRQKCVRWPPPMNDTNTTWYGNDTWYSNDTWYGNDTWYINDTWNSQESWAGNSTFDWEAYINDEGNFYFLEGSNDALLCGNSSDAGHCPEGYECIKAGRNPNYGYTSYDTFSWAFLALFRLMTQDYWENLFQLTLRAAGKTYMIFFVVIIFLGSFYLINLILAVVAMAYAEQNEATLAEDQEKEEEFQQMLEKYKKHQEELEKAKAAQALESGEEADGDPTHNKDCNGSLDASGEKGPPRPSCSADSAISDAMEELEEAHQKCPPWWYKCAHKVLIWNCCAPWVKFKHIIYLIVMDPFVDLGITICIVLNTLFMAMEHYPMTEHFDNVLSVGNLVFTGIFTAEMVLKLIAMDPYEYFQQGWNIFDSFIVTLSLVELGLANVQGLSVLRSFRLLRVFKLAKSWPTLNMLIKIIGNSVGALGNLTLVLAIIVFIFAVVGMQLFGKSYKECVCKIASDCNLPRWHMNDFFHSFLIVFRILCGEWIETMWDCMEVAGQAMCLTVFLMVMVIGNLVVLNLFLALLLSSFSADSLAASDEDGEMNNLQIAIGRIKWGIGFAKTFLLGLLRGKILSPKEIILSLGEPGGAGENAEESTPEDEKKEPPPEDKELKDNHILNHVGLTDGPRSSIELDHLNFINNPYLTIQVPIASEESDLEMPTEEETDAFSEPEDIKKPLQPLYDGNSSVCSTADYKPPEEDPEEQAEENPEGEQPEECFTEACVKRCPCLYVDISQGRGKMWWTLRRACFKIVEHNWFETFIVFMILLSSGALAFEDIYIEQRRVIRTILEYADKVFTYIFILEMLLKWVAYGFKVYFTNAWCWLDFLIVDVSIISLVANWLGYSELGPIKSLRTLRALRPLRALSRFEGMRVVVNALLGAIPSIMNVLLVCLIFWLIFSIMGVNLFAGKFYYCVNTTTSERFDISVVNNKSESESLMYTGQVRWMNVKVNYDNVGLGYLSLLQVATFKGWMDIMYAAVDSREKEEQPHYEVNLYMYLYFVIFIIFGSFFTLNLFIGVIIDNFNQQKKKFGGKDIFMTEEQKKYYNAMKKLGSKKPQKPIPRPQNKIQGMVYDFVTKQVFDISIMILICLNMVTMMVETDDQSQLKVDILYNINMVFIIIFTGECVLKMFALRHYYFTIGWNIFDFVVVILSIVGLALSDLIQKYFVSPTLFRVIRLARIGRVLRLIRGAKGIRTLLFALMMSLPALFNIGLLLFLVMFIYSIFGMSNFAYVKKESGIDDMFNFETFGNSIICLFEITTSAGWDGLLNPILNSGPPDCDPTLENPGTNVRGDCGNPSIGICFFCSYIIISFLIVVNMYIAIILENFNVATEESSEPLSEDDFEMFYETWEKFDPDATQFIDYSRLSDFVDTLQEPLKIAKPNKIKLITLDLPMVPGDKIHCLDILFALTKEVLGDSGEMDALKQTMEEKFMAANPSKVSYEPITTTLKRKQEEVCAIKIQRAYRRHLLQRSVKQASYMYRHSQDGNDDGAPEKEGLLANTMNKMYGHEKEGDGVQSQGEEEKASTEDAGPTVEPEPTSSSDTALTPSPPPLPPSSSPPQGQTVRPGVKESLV
Method: Chinese hamster ovary (CHO) cells stably expressing RSM (μl) sodium channels were studied using the patch clamp whole cell recording technique. CHO cells were grown to confluence in Dulbecco's Modified Eagle's Medium fortified with 15% FBS, 100 U/ml penicillin and 100 μg/ml streptomycin in a humidified incubator at 37° C. and 5% CO2, with medium changed every 2–3 days. Transfections with the plasmid pZemμ1–2 were performed using the calcium phosphate coprecipitation method. After 24 hr of incubation with DNA, standard culturing conditions were resumed. After 3 days, stably transfected cells were selected with 400 μg/ml geneticin. Transfected cells were grown to confluence and then plated on 35 mm culture dishes for 24–96 hr before the experiment.
An 8900 Dagan patch clamp amplifier with a 1 GΩ 8920 Dagan headstage was used in combination with a Nikon Diaphot inverted microscope. Micromanipulators were used to place the electrode onto the cell. Electrodes were pulled to a resistance of […]. […] Peak currents were determined from these traces. DCUKA dissolved in 0.4% DMSO was added directly to the bath following seal formation and the data are expressed as the % of the initial peak current response obtained before drug addition. […]

[3] = molecular target: T2, polyamine binding site on the NMDA receptor (Rattus norvegicus, UniProt P35439+Q00960); test: [3H]ifenprodil binding, rat cortical membranes; conditions: 5–200 μM DCUKA tested
T2 construct: from tissue; host or cells: rat cortical membranes
T2 sequence (Q00960 27-1482, other chains not shown): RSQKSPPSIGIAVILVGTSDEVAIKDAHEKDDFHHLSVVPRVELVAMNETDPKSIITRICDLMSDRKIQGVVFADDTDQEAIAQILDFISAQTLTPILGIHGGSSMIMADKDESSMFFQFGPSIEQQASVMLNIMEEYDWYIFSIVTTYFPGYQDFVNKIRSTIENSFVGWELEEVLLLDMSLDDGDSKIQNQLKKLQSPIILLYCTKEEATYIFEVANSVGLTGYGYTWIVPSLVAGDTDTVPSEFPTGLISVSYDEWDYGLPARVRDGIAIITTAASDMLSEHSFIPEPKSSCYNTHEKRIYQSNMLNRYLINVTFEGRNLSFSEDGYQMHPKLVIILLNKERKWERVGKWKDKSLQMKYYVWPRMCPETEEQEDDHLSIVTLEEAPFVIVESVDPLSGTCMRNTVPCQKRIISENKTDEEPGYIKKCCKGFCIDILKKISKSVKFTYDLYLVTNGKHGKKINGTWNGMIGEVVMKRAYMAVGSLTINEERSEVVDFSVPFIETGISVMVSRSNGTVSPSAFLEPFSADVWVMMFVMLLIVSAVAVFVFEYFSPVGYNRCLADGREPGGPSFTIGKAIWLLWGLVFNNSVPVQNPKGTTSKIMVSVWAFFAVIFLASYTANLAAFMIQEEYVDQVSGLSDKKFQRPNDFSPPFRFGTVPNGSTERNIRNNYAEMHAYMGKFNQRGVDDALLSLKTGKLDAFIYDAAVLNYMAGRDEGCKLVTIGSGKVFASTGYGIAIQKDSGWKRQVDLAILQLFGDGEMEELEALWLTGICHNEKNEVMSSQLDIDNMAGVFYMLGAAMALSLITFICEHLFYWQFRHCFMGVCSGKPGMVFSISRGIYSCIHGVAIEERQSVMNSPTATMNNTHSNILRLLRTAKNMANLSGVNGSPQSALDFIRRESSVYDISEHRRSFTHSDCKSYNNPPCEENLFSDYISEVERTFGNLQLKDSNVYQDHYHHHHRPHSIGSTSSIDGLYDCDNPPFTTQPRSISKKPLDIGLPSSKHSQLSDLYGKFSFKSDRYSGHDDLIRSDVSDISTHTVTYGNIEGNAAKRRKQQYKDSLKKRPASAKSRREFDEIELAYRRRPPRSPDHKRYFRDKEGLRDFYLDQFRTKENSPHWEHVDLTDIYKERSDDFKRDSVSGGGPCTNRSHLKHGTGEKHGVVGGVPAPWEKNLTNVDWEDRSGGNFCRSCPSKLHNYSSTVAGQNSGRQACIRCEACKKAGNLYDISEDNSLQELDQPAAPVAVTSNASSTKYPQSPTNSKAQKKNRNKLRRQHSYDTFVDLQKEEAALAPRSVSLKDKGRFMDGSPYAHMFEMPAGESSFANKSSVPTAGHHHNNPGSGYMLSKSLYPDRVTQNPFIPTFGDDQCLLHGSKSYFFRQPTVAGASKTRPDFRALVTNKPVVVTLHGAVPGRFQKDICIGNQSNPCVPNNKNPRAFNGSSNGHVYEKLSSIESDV

SMILES	protection from glutamate-induced cell death ([1]; 100 μM)	effect on glutamate-induced cell death ([1]; 10, 30 or 100 μM, 30 minutes with glutamate)	duration of ethanol-induced loss of righting reflex (LORR) (Swiss-Webster mice)	IC50 [2] [µM]	effect on sodium current through VSNaCs (RSM (μl) sodium channels)	IC50 [3] [µM]
COC(=O)c1cc(NC(=O)N(c2ccccc2)c2ccccc2)c2c(Cl)cc(Cl)cc2n1 [DCUK-OMe, (N,N-diphenyl)-4-ureido-5,7-dichloro-2-carboxy-quinoline methyl ester]	complete protection	can block glutamate-induced cell death in a concentration-dependent manner	no significant enhancement	–	–	–
O=C(O)c1cc(NC(=O)N(c2ccccc2)c2ccccc2)c2c(Cl)cc(Cl)cc2n1 [DCUKA, (N,N-diphenyl)-4-ureido-5,7-dichloro-2-carboxy-quinoline]	–	–	–	> 200	use- and voltage-dependent inhibitor of VSNaCs	> 200
